Test results from patent US20260193188A1, “CRYSTALLINE POLYMORPH FORMS OF A TRPV1 ANTAGONIST AND FORMULATIONS THEREOF” (Bausch + Lomb Ireland Limited, priority 2022, published 2026).
In brackets after ≈: the same amount, converted by molar mass. Blank lines part the entries; values can stand above or below the compound they belong to.

Tests used:
human TRPV1 = biological target: T1, human TRPV1 (Homo sapiens, UniProt Q8NER1); assay: FLIPR calcium assay to detect calcium influx in CHO-huTrpV1 cells (antagonism of NADA response); format: cell-based; settings: stimulated with 2.5 μM NADA (EC80), FLIPR calcium 6, read-out: IC50, antagonist effect against human TRPV1
T1 construct: expressed in transfected cells; host or cells: CHO (Chinese Hamster Ovary) cells, geneticin-selected
Description: Chinese Hamster Ovary (CHO) cells transfected to express human TrpV1 receptor (which are herein referred to as CHO-huTrpV1 cells), were grown in F-12 Ham's Nutrient Mixture media (HyClone SH30026.01) supplemented with 10% Fetal Bovine Serum (Invitrogen #26140-079), 1% Antibiotic/antimycotic (Invitrogen #15240-062) and 500 μg/mL geneticin (ThermoFisher scientific #1031035). Cells were grown in T-75 flasks at 37° C. incubater with 5% CO2. The cells were passaged twice a week at a ratio of 1:10 to 1:20 to maintain steady growth. For experimentation, cells were harvarsted at approximately 80% confluency and plated onto 384 well black cell culture plates (cat #781091, Greinier Bio-One Inc.) at 15,000 cells per well in 20 μl media and grown overnight.
The loading dye was prepared following instruction of Calcium 6 assay kit ([…], #R8190): 10 ml buffer from bottle B was added to 1 vial of bottle A (adapted to room temperature from −20° C.) and mixed well, then 2.5 mM of fresh prepared probenecid was added and mixed well. 20 μl/well of loading dye was added on top of the cells, and incubated at 37° C. for 1 hour 30 min.
Assay buffer preparation: 1×HBSS, 2 mM HEPES, 0.1% BSA plus 2.5 mM freshly prepared probenecid (Invitrogen, #P36400). 25 μl/well assay buffer in 384 well clear plate (cat #782281, Greiner Bio-one) was dispensed with buffer distributor (Multidrop ComB1 from Thermo Scientific). The compounds were in 384 Echo plate (cat #LPL0200, Labcyte) and the starting concentration of compound was 10 mM, then 1 to 3 serial dilution in 100% DMSO, 8 ul/well). 125 nl compounds was transferred to the 384 well plate containing 25 μl/well buffer with Echo® 555 Liquid Handler (Labcyte), such that the compound concentration was 5 fold of final concentration. The plate was shook slowly at 40 rpm/min for 10 min to mix. […]
After compounds were added to the cell plate with loading dye, within 10-15 minutes, cell plate and plate containing NADA was placed into the FLIPR (Fluorescent Imaging Plate Reader) instrument (Tetra System, Molecular device). […]

Solubility in solvents = format: physicochemical; settings: organic solvent or mixture
Description: Compound I is poorly soluble (between 1 and 25 mg/ml) in acetonitrile, dicholormethane, methyl-tert-butyl ether, nitromethane. In toluene and heptane, compound I is sparingly soluble (<1 mg/ml).

[1] = Hydrate formation on equilibration in aqueous fluid; format: physicochemical; settings: equilibrated at 4° C. in water, methanol/water (33:67, 42:58), after 2 weeks and 4 weeks
Hygroscopicity by DVS = format: physicochemical
[2] = Solid form stability (humidity exposure, compression, grinding, granulation); format: physicochemical

T1 sequence (Q8NER1 whole entry): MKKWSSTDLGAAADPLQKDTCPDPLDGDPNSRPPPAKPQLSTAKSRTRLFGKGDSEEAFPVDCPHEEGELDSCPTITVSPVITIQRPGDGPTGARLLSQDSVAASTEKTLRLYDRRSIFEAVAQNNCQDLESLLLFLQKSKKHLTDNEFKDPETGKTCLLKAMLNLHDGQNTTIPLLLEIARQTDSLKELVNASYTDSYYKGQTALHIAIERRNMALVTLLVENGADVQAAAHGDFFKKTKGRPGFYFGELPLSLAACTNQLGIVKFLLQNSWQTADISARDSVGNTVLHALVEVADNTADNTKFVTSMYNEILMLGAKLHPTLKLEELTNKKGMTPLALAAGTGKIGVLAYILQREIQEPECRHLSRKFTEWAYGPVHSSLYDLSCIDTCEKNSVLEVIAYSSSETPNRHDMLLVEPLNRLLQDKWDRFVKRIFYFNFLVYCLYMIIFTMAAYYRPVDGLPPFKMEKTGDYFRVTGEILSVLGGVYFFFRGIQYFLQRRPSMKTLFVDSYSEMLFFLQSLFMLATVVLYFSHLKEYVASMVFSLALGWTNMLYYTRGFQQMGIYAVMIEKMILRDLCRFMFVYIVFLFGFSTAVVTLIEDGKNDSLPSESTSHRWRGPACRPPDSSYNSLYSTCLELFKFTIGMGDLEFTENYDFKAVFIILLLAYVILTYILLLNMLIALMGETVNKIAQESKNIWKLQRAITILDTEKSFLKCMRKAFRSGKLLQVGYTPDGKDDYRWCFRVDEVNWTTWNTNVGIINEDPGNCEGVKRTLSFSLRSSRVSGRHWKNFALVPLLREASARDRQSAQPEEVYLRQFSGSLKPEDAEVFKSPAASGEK

IC50 (human TRPV1): 10.4 nM
SMILES: OCC(O)c1cc(F)c(CN[C@H]2C[C@H](Oc3ccc(F)c(C(F)(F)F)c3)C2)c2ccncc12 (mixture of isomers) [Example 1 (mixture of isomers), 1-(6-fluoro-5-((((1r,3r)-3-(4-fluoro-3-(trifluoromethyl)phenoxy)cyclobutyl)amino)methyl)isoquinolin-8-yl)ethane-1,2-diol]

IC50 (human TRPV1): 0.62 nM
solubility (Solubility in solvents; organic solvents and alcohol/water mixtures, acetone, 1,4-dioxane, ethanol, ethyl acetate, isopropyl acetate, methanol, 2-methyl-2-butanol, tetrahydrofuran, 1-propanol/water (98.5:1.5), 2-propanol/water (96:4), methanol/water (78:22)): > 25 mg/mL
solubility (Solubility in solvents; organic solvents, acetonitrile, dicholormethane, methyl-tert-butyl ether, nitromethane): 1 to 25 mg/mL (≈ 2.13 to 53.4 mM)
solubility (Solubility in solvents; organic solvents, toluene and heptane): < 1 mg/mL
Hydrate formation [1]: not observed to form a hydrate
SMILES: OC[C@@H](O)c1cc(F)c(CN[C@H]2C[C@H](Oc3ccc(F)c(C(F)(F)F)c3)C2)c2ccncc12 (single isomer, unassigned)

IC50 (human TRPV1): 6.3 nM
SMILES: OC[C@H](O)c1cc(F)c(CN[C@H]2C[C@H](Oc3ccc(F)c(C(F)(F)F)c3)C2)c2ccncc12 [(R)-1-(6-fluoro-5-((((1r,3R)-3-(4-fluoro-3-(trifluoromethyl)phenoxy)cyclobutyl)amino)methyl)isoquinolin-8-yl)ethane-1,2-diol]

Hygroscopicity by DVS (Hygroscopicity by DVS; DVS): slightly hygroscopic
Solid state change after DVS (Hygroscopicity by DVS; DVS up to 95% RH): no change in solid state
Water vapor absorbed (Hygroscopicity by DVS; DVS, at 95% RH): approximately 0.4%
Change after humidity exposure ([2]; 92% RH for 24 h): did not result in change
Form change after compression ([2]; compression, only minor peak broadening): no form change
Form change under grinding and granulation ([2]; dry grinding and wet granulation with water and ethanol (XRPD, FIG. 4)): did not show form change
SMILES: OC[C@@H](O)c1cc(F)c(CN[C@H]2C[C@H](Oc3ccc(F)c(C(F)(F)F)c3)C2)c2ccncc12 [Compound I Form A, (S)-1-(6-fluoro-5-((((1r,3S)-3-(4-fluoro-3-(trifluoromethyl)phenoxy)cyclobutyl)amino)methyl)isoquinolin-8-yl)ethane-1,2-diol]
